Like-named read-outs stand apart in the source and are kept apart here. Marks after values point to notes of the source that are not given here.
Columns and labels:
[1] = system: neurological EAE in the Lewis rat
Method: Male Lewis rats, weighing 230-280 g on the day of inoculation, were injected in each rear footpad with 0.1 ml of an emulsion containing equal parts of guinea pig spinal cord; phosphate buffered saline (PBS) and incomplete Freund's adjuvant supplemented with 10 mg/ml Mycobacterium tuberculosis H37Ra.
(§5) Animals were weighed daily and assessed for neurological disease from day 7 post-inoculation (PI). Rats displaying symptoms of EAE were scored as follows: 1: flaccid tail (FT), 2: hind limb hypotonia (HLH), 3: partial hind limb paralysis (PHLP), 4: complete hind limb paralysis (CHLP), 5: moribund or dead.
NA:GLA (neat oil) was orally administered 5 days prior to inoculation and continued for 25 days PI, at a dose of 750 mg/kg body weight/day and 1000 mg/kg body weight/day. NA:DHA (neat oil) was given by an identical dosing regime at a dose of 500 mg/kg body weight/day. Control-sensitised animals received PBS vehicle or were undosed. Undosed, vehicle and low dose NA:GLA treatments contained 7 animals. Four rats received high dose NA:GLA and 3 rats were dosed with NA:DHA.

[2] = Nervonic acid composition of total polar lipid from rat brain (Example 9); type: in vivo; settings: after Example 6 treatments; NA:GLA at both low and high doses
Method: (§1) Upon termination of certain biological evaluations, rat or mice brains were extracted and the fatty acid composition of total polar lipids from rat/mouse brain was determined.
(§2) Biological material was sent for analysis to Dr J. Hendersen at the University of Stirling, Institute of Aquaculture, Scotland. Analyses were carried out on two batches of experiments (detailed respectively in Example 6 and Example 7).

[3] = system: acute EAE in the Lewis rat; assay: Prophylactic effect of glyceryl trinervonate on acute EAE (Comparative Example); type: in vivo
Method: Prophylactic effects of glyceryl trinervonate (GTN, Description 4) were assessed on acute EAE in the Lewis rat. Induction and Assessment of EAE was as for Example 4. Dosing regime involved oral administration in Miglyol 810 five days prior to inoculation and for 20 days post-inoculation. (Refer to Example 8 regarding insignificance of use of PBS or Miglyol vehicles).

[4] = system: chronic EAE in the Biozzi mouse model; assay: NA:NA and NA:GLA in ethyl oleate in chronic relapsing EAE (Example 7); type: in vivo; settings: for AG: Percentage of mice in the group / CFT: Percentage of mice in the group / CHLP: Percentage of mice in the group / HLH: Percentage of mice in the group / PFT: Percentage of mice in the group / PHLP: Percentage of mice in the group: ethyl oleate vehicle
Method: (§3) Male Biozzi mice weighing 30-35 g were injected in each flank with 0.15 mL of an emulsion containing lyophilised mouse spinal cord, phosphate buffered saline and incomplete Freund's adjuvant supplemented with Mycobacterium butyricum and Mycobacterium tuberculosis H37Ra.
(§4) 1: Partial Flaccid Tail (PFT), 2: Complete Flaccid Tail (CFT), 3: Impaired Righting Reflex (IRR), 4: Ataxic Gait (AG), 5: Hind Limb Hypotonia (HLH), 6: Partial Hind Limb Paralysis (PHLP), 7: Complete Hind Limb Paralysis (CHLP), 8: Moribund (M), 9: Dead (D).

[5] = Miscibility / physical state of oral compositions in vehicle; type: physicochemical; settings: room temperature (about 20° C.); dilution in vehicle
Description: Formulations of the present invention suitable for oral administration may be in the form of discrete units such as capsules, cachets, tablets or lozenges, each containing a predetermined amount of the active ingredient; in the form of a powder or granules; in the form of a solution or a suspension in an aqueous liquid or non-aqueous liquid; or in the form of an oil-in-water emulsion or a water-in-oil emulsion. The active ingredient may also be in the form of a bolus, electuary or paste. For such formulations, a range of dilutions of the active ingredient in the vehicle is suitable, such as from 1% to 99%, preferably 5% to 50% and more preferably 10% to 25% dilution. Depending upon the level of dilution, the formulation will be either a liquid at room temperature (in the region of about 20° C.) or a low-melting solid.

[6] = system: neurological EAE in the Lewis rat; assay: NA:NA (ethyl oleate formulation) in acute EAE (Example 5)
Method: Male Lewis rats, weighing 240-360 g on the day of inoculation, were injected in each rear footpad with 0.1 ml of an emulsion containing equal parts of guinea pig spinal cord, phosphate buffered saline (PBS) and incomplete Freund's adjuvant supplemented with 10 mg/ml Mycobacterium tuberculosis H37Ra.
as §5
Control-sensitised animals received ethyl oleate vehicle or were undosed, and each treatment contained 10 animals.
Students t-test was used to assess significant differences in neurological scores and the Fishers exact probability test for the presence or absence of symptoms.

[7] = system: CREAE in the Biozzi mouse model; assay: NA:NA and NA:GLA in Miglyol 810 in CREAE (Example 8); type: in vivo
Method: as §3, §4
Therefore, Miglyol appeared well-suited for use as a vehicle in subsequent studies to determine the efficacy of compounds in CREAE. Therefore, using Miglyol 810 as the new vehicle, prophylactic effects of NA:NA and NA:GLA were re-assessed on CREAE in the Biozzi mouse model (90% dilution, 1000 mg/kg/day, up to 43 days PI).

[8] = Nervonic acid composition of total polar lipid from mouse brain (Example 9); type: in vivo; settings: CREAE-inoculated mice
Method: as §1, §2

[9] = 10% w/w in ethyl oleate, 1000 mg/kg body weight/day
[10] = 10% w/w in ethyl oleate, oral 1000 mg/kg body weight/day, n=10
[11] = Biozzi mouse, 10% w/w in ethyl oleate, 1000 mg/kg body weight/day
[12] = acute phase, Biozzi mouse, 10% w/w in ethyl oleate, 1000 mg/kg body weight/day
[13] = relapse phase, Biozzi mouse, 10% w/w in ethyl oleate, 1000 mg/kg body weight/day
[14] = acute phase, Miglyol 810 vehicle, 1000 mg/kg/day
[15] = acute phase, Miglyol 810 vehicle, n=12, NA:GLA n=11
[16] = relapse phase, Miglyol 810 vehicle, 1000 mg/kg/day
[17] = relapse phase, Miglyol 810 vehicle, NA:GLA n=9, NA:NA n=11

## CCC=CCC=CCC=CCC=CCC=CC/C=C\CCC(=O)OCCCOC(=O)CCCCCCCCCCCCC/C=C\CCCCCCCC [NA:DHA, 1-(z-15-tetracosenoyloxy)-3-(z-4,7,10,13,16,19-docosahexaenoyloxy)propane]
[1]; 500 mg/kg/day
  CHLP: Number of animals showing symptoms/total: 3/3
  FT: Number of animals showing symptoms/total: 3/3
  HLH: Number of animals showing symptoms/total: 3/3
  PHLP: Number of animals showing symptoms/total: 3/3
  daily score: enhanced compared to levels noted for control and NA:GLA-treated animals
  development of CHLP: 11.3±1.3
  effect on neurological symptoms: intensified neurological symptoms
[1]; neat oil oral 500 mg/kg/day
  Mean day of final symptom loss (±SD): 19.3 ± 1.2 days
  Mean day of symptom onset (±SD): 10.3 ± 0.6 days
  Number of dead/total: 0/3
[1]; neat oil oral 500 mg/kg/day, 5 days prior to inoculation and 25 days PI
  Number diseased/total: 3/3
[2]
  NA levels in rat brain lipids compared to normal, undosed and vehicle treated animals: did not enhance the NA levels

## CCCCCCCC/C=C/CCCCCCCCCCCCCC(=O)OCC(COC(=O)CCCCCCCCCCCCC/C=C/CCCCCCCC)OC(=O)CCCCCCCCCCCCC/C=C/CCCCCCCC [GTN, Glyceryl Trinervonate]
[3]; compared to vehicle or undosed groups
  onset and loss of symptoms together with duration of the disease: not significantly different from vehicle or undosed groups
[3]; dietary administered
  adverse effect (body weight gain until day 10): did not induce any major adverse effect
[3]; oral in Miglyol 810
  effect on parameters associated with neurological deficits in EAE-diseased rats: did not significantly affect any parameter
[3]; oral in Miglyol 810, 5 days prior to inoculation and 20 days PI, n=10
  No. of diseased rats: 10/10
[3]; oral in Miglyol 810, n=10
  CFT: Percentage of rats in the group: 100%
  CHLP: Percentage of rats in the group: 40%
  HLH: Percentage of rats in the group: 90%
  MD: Percentage of rats in the group: 0%
  Mean day of symptom loss: 17.0 ± 1.2 days
  Mean day of symptom onset: 11.2 ± 1.2 days
  Mean duration of symptoms: 5.8 ± 1.1 days
  Number of dead: 0/10
  PFT: Percentage of rats in the group: 100%
  PHLP: Percentage of rats in the group: 70%

## CCCCCCCC/C=C\CCCCCCCC(=O)OCC [ethyl oleate]
[4]; Biozzi mouse, ethyl oleate vehicle alone, compared to undosed
  effect of the vehicle on incidence and severity of chronic relapsing EAE: significantly reduced the incidence and severity of the acute and relapsing phases

## CCCCCCCC/C=C\CCCCCCCCCCCCCC(=O)OCCCOC(=O)CCCCCCCCCCCCC/C=C\CCCCCCCC [NA:NA, 1,3-di-(z-15-tetracosenoyloxy)propane]
[5]
  concentration at which compositions are liquids at room temperature: ≤ 25%
[6]; [9]
  CHLP: Number of animals showing symptoms/total: 1/10
  FT: Number of animals showing symptoms/total: 6/10**
  HLH: Number of animals showing symptoms/total: 4/10***
  Neurological scores: consistently lower compared to values recorded for undosed and vehicle-treated animals
  PHLP: Number of animals showing symptoms/total: 3/10
  animals that experienced symptoms of disease: 60%
  effect on incidence of disease: significantly reduces the incidents of disease
[6]; [10]
  Mean day of final symptom loss (±SD): 16.3 ± 1.0 days
  Mean day of symptom onset (±SD): 12.3 ± 0.8 days
  Mean duration of symptoms (day ± SD): 4.0 ± 1.2 days
  Number of dead/total: 0/10
[6]; […], oral 1000 mg/kg body weight/day, 5 days prior to inoculation and 22 days PI, n=10
  Number diseased/total: 6/10*
[4]; [11]
  Acute and relapse symptoms (mean neurological scores): completely abolished
  onset of relapse: delayed, but not significantly
[4]; [12]
  Mean day of symptom loss: 24.7 ± 3.2 days
  Mean day of symptom onset: 22.3 ± 3.8 days
  Mean duration of symptoms: 2.3 ± 1.2 days
  Number of dead mice: 0/10
[4]; acute phase, Biozzi mouse, […], oral 1000 mg/kg body weight/day, 5 days prior to inoculation and 43 days PI, n=10
  No. of diseased mice: 3/10
[4]; acute phase, n=10
  AG: Percentage of mice in the group: 20%
  CFT: Percentage of mice in the group: 0%
  CHLP: Percentage of mice in the group: 0%
  HLH: Percentage of mice in the group: 10%
  PFT: Percentage of mice in the group: 10%
  PHLP: Percentage of mice in the group: 0%
[4]; [13]
  Mean day of symptom onset: 43.3 ± 1.2 days
  No. of diseased mice: 3/10
  Number of dead mice: 1/10
[4]; relapse phase, n=10
  AG: Percentage of mice in the group: 30%
  CFT: Percentage of mice in the group: 0%
  CHLP: Percentage of mice in the group: 0%
  HLH: Percentage of mice in the group: 30%
  PFT: Percentage of mice in the group: 20%
  PHLP: Percentage of mice in the group: 0%
[7]; Biozzi mouse, Miglyol 810 vehicle, 1000 mg/kg/day
  effect on the neurological course of CREAE: did not seem significantly to alter the course of CREAE
[7]; acute phase, Biozzi mouse, Miglyol 810 vehicle (90% dilution), 1000 mg/kg/day, up to 43 days PI
  No. of diseased mice: 12/12
[7]; [14]
  Mean day of symptom loss: 26.3 ± 1.0 days
  Mean day of symptom onset: 17.1 ± 1.9 days
  Mean duration of symptoms: 9.2 ± 1.6 days
  Number of dead mice: 1/12
[7]; [15]
  AG: Percentage of mice in the group: 100%
  CFT: Percentage of mice in the group: 100%
  CHLP: Percentage of mice in the group: 58%
  D (dead): Percentage of mice in the group: 8%
  HLH: Percentage of mice in the group: 100%
  IRR: Percentage of mice in the group: 100%
  M (moribund): Percentage of mice in the group: 0%
  PFT: Percentage of mice in the group: 100%
  PHLP: Percentage of mice in the group: 75%
[7]; [16]
  Mean day of symptom loss: 44.0 ± 3.6 days
  Mean day of symptom onset: 34.3 ± 6.6 days
  Mean duration of symptoms: 13.7 ± 4.0 days
  No. of diseased mice: 9/11
  Number of dead mice: 3/11
[7]; [17]
  AG: Percentage of mice in the group: 82%
  CFT: Percentage of mice in the group: 82%
  CHLP: Percentage of mice in the group: 73%
  D (dead): Percentage of mice in the group: 27%
  HLH: Percentage of mice in the group: 82%
  IRR: Percentage of mice in the group: 82%
  M (moribund): Percentage of mice in the group: 0%
  PFT: Percentage of mice in the group: 82%
  PHLP: Percentage of mice in the group: 73%
[8]
  NA levels in mouse brain lipids compared to undosed and vehicle: enhancement of the NA levels in brain lipids

Source: patent US6664406B1, “Nervonic acid derivatives, their preparation and use” (Croda International PLC, priority 1999, dated 2003)
